Test results from publication PMC6858497 (The Journal of physiology, 2019).
Several values for one entry are separate records, joined by “and”; a condition that tells them apart may be missing. Equal values may be shown once.

What was measured:
GluN1–1a/2B = GluN1–1a/2B (Rattus norvegicus, UniProt P35439+Q00960); experiment: Two-electrode voltage-clamp recordings, Xenopus oocytes; format: cell-based; settings: isoform 1a
GluN1–1a/2BC1/2DC2 = GluN1–1a/2BC1/2DC2 (Rattus norvegicus, UniProt P35439+Q00959+Q00960+Q62645, A876H/F846L/G856D/H848F/K857R/M851T/M860L/Q845K/R869K/V861L/V866F); experiment: as above; format: cell-based; settings: isoform 1a
GluN1–1b/2B = GluN1–1b/2B (Rattus norvegicus, UniProt P35439+Q00960); experiment: as above; format: cell-based; settings: isoform 1b
Sequence of GluN1–1b/2B (Q00960 27-1482, other chains not shown): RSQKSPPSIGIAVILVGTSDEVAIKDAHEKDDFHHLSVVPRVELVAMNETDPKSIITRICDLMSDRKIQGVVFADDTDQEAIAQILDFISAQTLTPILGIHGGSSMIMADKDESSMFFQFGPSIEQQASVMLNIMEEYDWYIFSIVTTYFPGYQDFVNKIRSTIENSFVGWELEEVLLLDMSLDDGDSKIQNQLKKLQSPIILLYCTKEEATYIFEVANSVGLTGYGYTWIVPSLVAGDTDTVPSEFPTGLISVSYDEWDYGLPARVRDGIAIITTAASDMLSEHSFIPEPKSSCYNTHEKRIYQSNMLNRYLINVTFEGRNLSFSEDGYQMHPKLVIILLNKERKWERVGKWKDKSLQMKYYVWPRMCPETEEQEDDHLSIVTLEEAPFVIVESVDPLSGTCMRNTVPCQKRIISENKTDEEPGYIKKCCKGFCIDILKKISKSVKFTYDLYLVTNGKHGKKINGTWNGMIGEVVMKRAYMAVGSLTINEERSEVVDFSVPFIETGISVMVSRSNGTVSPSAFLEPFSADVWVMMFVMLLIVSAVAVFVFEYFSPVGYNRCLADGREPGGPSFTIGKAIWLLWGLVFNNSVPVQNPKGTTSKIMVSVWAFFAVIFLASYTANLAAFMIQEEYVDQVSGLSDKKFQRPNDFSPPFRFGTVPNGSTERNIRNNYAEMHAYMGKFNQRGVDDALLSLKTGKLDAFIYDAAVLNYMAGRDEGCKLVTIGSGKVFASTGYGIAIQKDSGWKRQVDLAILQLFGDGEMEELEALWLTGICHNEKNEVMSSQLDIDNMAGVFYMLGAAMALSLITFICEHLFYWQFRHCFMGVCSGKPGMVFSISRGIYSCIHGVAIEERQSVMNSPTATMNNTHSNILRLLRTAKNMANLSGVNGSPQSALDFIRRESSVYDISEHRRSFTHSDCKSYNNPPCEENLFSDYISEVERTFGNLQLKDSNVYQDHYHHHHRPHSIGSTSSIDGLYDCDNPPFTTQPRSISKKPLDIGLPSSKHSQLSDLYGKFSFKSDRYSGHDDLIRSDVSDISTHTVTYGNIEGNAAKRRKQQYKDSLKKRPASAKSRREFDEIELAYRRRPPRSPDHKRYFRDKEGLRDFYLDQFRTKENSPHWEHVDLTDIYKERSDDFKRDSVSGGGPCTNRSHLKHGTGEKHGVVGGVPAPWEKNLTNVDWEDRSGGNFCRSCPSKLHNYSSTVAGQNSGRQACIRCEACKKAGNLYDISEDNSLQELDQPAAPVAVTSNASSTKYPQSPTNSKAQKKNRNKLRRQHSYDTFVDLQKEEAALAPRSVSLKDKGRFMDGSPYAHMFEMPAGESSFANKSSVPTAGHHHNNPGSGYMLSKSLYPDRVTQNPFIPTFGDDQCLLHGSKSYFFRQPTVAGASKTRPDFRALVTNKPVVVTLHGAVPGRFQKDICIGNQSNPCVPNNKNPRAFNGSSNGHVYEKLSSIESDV

GluN1–1b/2BC1/2DC2 = GluN1–1b/2BC1/2DC2 (Rattus norvegicus, UniProt P35439+Q00959+Q00960+Q62645, A876H/F846L/G856D/H848F/K857R/M851T/M860L/Q845K/R869K/V861L/V866F); experiment: as above; format: cell-based; settings: isoform 1b
[1] = test system: NMDA receptors in cerebellar Golgi cells (thought to be mainly GluN1/2B/2D); settings: single-channel recordings, outside-out patches; ref Brickley et al., 2003; cited from earlier work
GluN1–1a/2D = GluN1–1a/2D (Rattus norvegicus, UniProt P35439+Q62645); experiment: Two-electrode voltage-clamp recordings, Xenopus oocytes; format: cell-based; settings: at 10 μM; relative to control; isoform 1a
Sequence of GluN1–1a/2D (Q62645 28-1323, other chains not shown): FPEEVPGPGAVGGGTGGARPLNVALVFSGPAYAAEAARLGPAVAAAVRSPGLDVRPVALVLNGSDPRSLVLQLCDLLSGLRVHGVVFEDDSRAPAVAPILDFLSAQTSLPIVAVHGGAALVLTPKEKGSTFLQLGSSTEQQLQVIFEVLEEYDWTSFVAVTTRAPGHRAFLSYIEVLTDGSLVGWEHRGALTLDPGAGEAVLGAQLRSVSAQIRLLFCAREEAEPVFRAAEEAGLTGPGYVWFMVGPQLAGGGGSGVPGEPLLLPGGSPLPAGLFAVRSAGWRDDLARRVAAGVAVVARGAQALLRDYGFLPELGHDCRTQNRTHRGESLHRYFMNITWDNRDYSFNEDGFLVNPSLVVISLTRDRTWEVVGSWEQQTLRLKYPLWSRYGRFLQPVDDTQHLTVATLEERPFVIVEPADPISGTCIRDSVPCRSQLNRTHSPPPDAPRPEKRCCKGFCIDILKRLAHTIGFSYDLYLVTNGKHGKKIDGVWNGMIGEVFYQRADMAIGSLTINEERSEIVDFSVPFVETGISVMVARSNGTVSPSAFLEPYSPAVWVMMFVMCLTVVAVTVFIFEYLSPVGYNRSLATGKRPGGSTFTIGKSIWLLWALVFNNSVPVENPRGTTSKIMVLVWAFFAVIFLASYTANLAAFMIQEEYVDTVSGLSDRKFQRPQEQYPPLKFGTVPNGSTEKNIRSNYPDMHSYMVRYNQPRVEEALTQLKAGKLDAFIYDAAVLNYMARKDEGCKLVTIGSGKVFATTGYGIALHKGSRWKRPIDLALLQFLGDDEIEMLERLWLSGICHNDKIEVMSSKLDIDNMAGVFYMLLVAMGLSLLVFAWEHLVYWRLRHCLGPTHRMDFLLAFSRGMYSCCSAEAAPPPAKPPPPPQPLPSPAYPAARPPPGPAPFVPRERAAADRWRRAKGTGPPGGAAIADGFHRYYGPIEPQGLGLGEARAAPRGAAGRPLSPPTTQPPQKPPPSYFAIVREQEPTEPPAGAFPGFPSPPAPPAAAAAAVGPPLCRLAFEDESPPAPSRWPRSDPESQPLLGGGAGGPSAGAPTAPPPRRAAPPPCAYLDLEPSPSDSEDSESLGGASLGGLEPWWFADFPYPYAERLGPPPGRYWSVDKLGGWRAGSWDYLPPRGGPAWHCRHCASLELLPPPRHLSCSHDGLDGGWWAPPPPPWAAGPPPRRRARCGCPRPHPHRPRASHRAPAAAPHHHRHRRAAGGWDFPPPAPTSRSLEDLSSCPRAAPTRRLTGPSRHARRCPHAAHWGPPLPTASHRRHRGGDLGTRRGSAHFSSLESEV

GluN1–1b/2D = GluN1–1b/2D (Rattus norvegicus, UniProt P35439+Q62645); experiment: as above; format: cell-based; settings: at 10 μM; isoform 1b
Sequence of GluN1–1b/2D (Q62645 28-1323, other chains not shown): as above

Sequence of GluN1–1a/2B (Q00960 27-1482, other chains not shown): as the sequence (Q00960 27-1482, other chains not shown) above

SMILES | nH (Hill coefficient) (GluN1–1a/2B; inhibition) | maximal inhibition (GluN1–1a/2B) | nH (Hill coefficient) (GluN1–1a/2BC1/2DC2; inhibition) | maximal inhibition (GluN1–1a/2BC1/2DC2) | nH (Hill coefficient) (GluN1–1b/2B; inhibition) | maximal inhibition (GluN1–1b/2B) | nH (Hill coefficient) (GluN1–1b/2BC1/2DC2; inhibition) | maximal inhibition (GluN1–1b/2BC1/2DC2) | IC50 [1] | maximal inhibition [1] | Relative Imax (GluN1–1a/2BC1/2DC2; at 10 μM, relative to control) | Relative Imax (GluN1–1a/2D) | Relative Imax (GluN1–1b/2B; at 10 μM) | Relative Imax (GluN1–1b/2BC1/2DC2; at 10 μM) | Relative Imax (GluN1–1b/2D)
CC(C(O)c1ccc(O)cc1)N1CCC(Cc2ccccc2)CC1 (stereo not drawn) [ifenprodil] | 1.1 | ~ 95% | 1.1 | ~ 65% | 1.8 | 88% | 1.1 | 69% | 129 nM | 71.5% |  |  |  |  | 
COc1ccc(OCC2c3cc(OC)c(OC)cc3CCN2C(=O)c2cccc(Cl)c2)cc1 (stereo not drawn) [CIQ] |  |  |  |  |  |  |  |  |  |  | 139% and 139 ± 3% | 227% and 227 ± 8% | 91% and 91 ± 3% | 115% and 115 ± 3% | 197% and 197 ± 8%
